Experimental data from patent publication US9499535B2, “Kinase inhibitors” (ORIGENIS GMBH, priority 2011, dated 2016).

Legend:
SYK kinase = biological target: T1, SYK kinase (Homo sapiens, UniProt P43405); test: SYK assay (OMNIA Kinase Assay, Invitrogen); type: biochemical; details: apparent Ki calculated from the IC50 using the Cheng-Prusoff equation; 1 mM ATP, 10 μM Peptide Substrate; read-out: SYK Activities: Ki
T1 construct: purchased Invitrogen, Carlsbad
Method in brief: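 Reaction velocities were measured from kinetic fluorescence reads (360/485 nm, every 30 s over 30 min) of Mg2+-chelated SOX signal. Conditions were 1 mM ATP, 10 μM Omnia Tyr 7 peptide and 0.2 mM DTT at 30° C. Sigmoidal IC50 fits were converted to apparent Ki using Cheng-Prusoff.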

LRRK2 = LRRK2 (Homo sapiens, UniProt Q5S007); test: LRRK2 assay (LanthaScreen Eu Kinase Binding Assay); details: 5 nM LRRK2, 10 nM tracer 236, RT 1 h; read-out: LRRK2 Activites: IC50
Chain of LRRK2 (Q5S007 970-2527 limits assumed): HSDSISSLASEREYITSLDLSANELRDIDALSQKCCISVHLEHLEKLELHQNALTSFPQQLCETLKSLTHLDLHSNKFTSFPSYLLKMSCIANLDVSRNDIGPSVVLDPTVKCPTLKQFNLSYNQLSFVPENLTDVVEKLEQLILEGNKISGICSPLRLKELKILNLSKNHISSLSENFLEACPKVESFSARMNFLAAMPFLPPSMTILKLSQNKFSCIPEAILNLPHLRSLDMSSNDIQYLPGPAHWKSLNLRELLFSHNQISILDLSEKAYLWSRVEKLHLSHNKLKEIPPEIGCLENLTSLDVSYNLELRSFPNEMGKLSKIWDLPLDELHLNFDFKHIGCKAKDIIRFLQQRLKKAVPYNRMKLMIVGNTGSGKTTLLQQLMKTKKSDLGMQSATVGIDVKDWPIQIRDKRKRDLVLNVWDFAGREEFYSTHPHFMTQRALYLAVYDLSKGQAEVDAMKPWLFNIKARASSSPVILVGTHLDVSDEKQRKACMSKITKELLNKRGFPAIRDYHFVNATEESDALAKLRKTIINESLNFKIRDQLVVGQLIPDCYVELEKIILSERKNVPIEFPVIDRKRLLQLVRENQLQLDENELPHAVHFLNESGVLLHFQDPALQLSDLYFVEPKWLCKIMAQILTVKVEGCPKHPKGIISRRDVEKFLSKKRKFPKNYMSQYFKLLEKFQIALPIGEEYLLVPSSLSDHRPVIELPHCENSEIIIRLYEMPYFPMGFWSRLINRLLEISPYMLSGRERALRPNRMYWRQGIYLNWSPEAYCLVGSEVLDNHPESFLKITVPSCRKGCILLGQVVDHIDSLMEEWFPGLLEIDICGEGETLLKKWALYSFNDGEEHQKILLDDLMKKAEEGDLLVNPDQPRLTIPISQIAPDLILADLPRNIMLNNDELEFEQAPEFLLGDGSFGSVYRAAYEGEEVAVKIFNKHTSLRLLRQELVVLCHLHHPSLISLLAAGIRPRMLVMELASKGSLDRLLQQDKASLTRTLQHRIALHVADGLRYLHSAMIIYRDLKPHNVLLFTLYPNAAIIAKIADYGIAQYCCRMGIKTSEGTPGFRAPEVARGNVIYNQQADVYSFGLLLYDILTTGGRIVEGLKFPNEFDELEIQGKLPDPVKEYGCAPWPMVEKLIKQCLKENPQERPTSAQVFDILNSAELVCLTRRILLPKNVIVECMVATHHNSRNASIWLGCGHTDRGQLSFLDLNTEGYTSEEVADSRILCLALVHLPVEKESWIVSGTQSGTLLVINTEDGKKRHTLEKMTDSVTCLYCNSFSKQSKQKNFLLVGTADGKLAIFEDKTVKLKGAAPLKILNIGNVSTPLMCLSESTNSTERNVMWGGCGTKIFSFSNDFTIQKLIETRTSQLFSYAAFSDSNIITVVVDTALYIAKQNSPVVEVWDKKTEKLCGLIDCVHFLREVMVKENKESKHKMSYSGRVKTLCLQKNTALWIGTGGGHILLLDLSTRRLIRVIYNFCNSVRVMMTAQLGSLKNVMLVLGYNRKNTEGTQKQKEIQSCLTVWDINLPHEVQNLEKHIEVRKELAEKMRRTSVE
Description: Binding of the tracer to the kinase is detected using a europium-labeled anti-tag antibody, which binds to the kinase of interest. […] Binding of an inhibitor to the kinase competes for binding with the tracer, resulting in a loss of FRET. The fluorescence intensity ratio is directly proportional to the amount of peptide phosphorylation.
The inhibitor concentration was plotted versus the emission ratio to determine the IC50 using XLFit 5.0 (IDBS, Guildford) to fit to a sigmoidal dose response curve with a variable slope.

Ki (SYK kinase) | IC50 (LRRK2) | Compound
< 10 nM | < 10 nM | COc1ccc2nc(Nc3cc(C4CCC4)n[nH]3)c3n[nH]cc3c2c1 [Example #85, (5-Cyclobutyl-2H-pyrazol-3-yl)-(8-methoxy-2H-pyrazolo[3,4-c]quinolin-4-yl)-amine]
10 to 100 nM | < 10 nM | COc1ccc2nc(Nc3ccc4c(c3)NCC(C)(C)S4)c3n[nH]cc3c2c1 [Example #88, (2,2-Dimethyl-3,4-dihydro-2H-benzo[1,4]thiazin-6-yl)-(8-methoxy-2H-pyrazolo[3,4-c]quinolin-4-yl)-amine]
10 to 100 nM | 100 to 1000 nM | CCOc1cc2nc(Nc3ccc4cn[nH]c4c3)c3n[nH]cc3c2cc1OCC [Example #92, (7,8-Diethoxy-2H-pyrazolo[3,4-c]quinolin-4-yl)-(1H-indazol-6-yl)-amine]
< 10 nM | < 10 nM | COc1ccc2nc(Nc3ccc4c(c3)NC(=O)CC4)c3n[nH]cc3c2c1 [Example #93, 7-(8-Methoxy-2H-pyrazolo[3,4-c]quinolin-4-ylamino)-3,4-dihydro-1H-quinolin-2-one]
10 to 100 nM | 10 to 100 nM | COc1ccc2nc(Nc3ccc4c(c3)NC(=O)CS4)c3[nH]ncc3c2c1 [Example #94, 6-(8-Methoxy-3H-pyrazolo[3,4-c]quinolin-4-ylamino)-4H-benzo[1,4]thiazin-3-one]
10 to 100 nM | 10 to 100 nM | COc1ccc2nc(Nc3cc(C(C)(C)C)[nH]n3)c3[nH]ncc3c2c1 [Example #95, (5-tert-Butyl-1H-pyrazol-3-yl)-(8-methoxy-3H-pyrazolo[3,4-c]quinolin-4-yl)-amine]
10 to 100 nM | 10 to 100 nM | COc1ccc2nc(Nc3cc(C)n[nH]3)c3[nH]ncc3c2c1 [Example #96, (8-Methoxy-3H-pyrazolo[3,4-c]quinolin-4-yl)-(5-methyl-2H-pyrazol-3-yl)-amine]
< 10 nM | 10 to 100 nM | COc1ccc2nc(Nc3cc(C4CC4)[nH]n3)c3[nH]ncc3c2c1 [Example #97, (5-Cyclopropyl-1H-pyrazol-3-yl)-(8-methoxy-3H-pyrazolo[3,4-c]quinolin-4-yl)-amine]
10 to 100 nM | 100 to 1000 nM | COc1ccc2nc(Nc3ccc4c(c3)OCO4)c3n[nH]cc3c2c1 [Example #100, Benzo[1,3]dioxol-5-yl-(8-methoxy-2H-pyrazolo[3,4-c]quinolin-4-yl)-amine]
10 to 100 nM | 100 to 1000 nM | COc1ccc2nc(Nc3ccc4c(c3)OCCO4)c3n[nH]cc3c2c1 [Example #101, (2,3-Dihydro-benzo[1,4]dioxin-6-yl)-(8-methoxy-2H-pyrazolo[3,4-c]quinolin-4-yl)-amine]
10 to 100 nM | 100 to 1000 nM | COc1ccc2nc(Nc3ccc(N4CCOCC4)nc3)c3[nH]ncc3c2c1 [Example #103, (8-Methoxy-3H-pyrazolo[3,4-c]quinolin-4-yl)-(6-morpholin-4-yl-pyridin-3-yl)-amine]
10 to 100 nM | 100 to 1000 nM | COCCOc1ccc(Nc2nc3ccc(OC)cc3c3cn[nH]c23)cc1 [Example #104, [4-(2-Methoxy-ethoxy)-phenyl]-(8-methoxy-3H-pyrazolo[3,4-c]quinolin-4-yl)-amine]
10 to 100 nM | 100 to 1000 nM | CCOc1ccc(Nc2nc3ccc(OC)cc3c3cn[nH]c23)cc1OC [Example #105, (4-Ethoxy-3-methoxy-phenyl)-(8-methoxy-3H-pyrazolo[3,4-c]quinolin-4-yl)-amine]
100 to 1000 nM | 100 to 1000 nM | COc1ccc2nc(Nc3ccc(N4CCCC4=O)cc3)c3[nH]ncc3c2c1 [Example #106]
10 to 100 nM | 100 to 1000 nM | COc1ccc2nc(Nc3ccc(N4CCSCC4)cc3)c3[nH]ncc3c2c1 [Example #107, (8-Methoxy-3H-pyrazolo[3,4-c]quinolin-4-yl)-(4-thiomorpholin-4-yl-phenyl)-amine]
100 to 1000 nM | 100 to 1000 nM | COc1ccc2nc(Nc3ccc4oc(=O)[nH]c4c3)c3[nH]ncc3c2c1 [Example #108, 5-(8-Methoxy-3H-pyrazolo[3,4-c]quinolin-4-ylamino)-3H-benzooxazol-2-one]
10 to 100 nM | 10 to 100 nM | COc1ccc2nc(Nc3ccc4c(c3)NCCO4)c3[nH]ncc3c2c1 [Example #109, (3,4-Dihydro-2H-benzo[1,4]oxazin-6-yl)-(8-methoxy-3H-pyrazolo[3,4-c]quinolin-4-yl)-amine]
10 to 100 nM | 10 to 100 nM | COc1ccc2nc(Nc3ccc(N4CCS(=O)(=O)CC4)cc3)c3n[nH]cc3c2c1 [Example #111, [4-(1,1-Dioxo-1lambda-6-thiomorpholin-4-yl)-phenyl]-(8-methoxy-3H-pyrazolo[3,4-c]quinolin-4-yl)-amine]
10 to 100 nM | 100 to 1000 nM | COc1ccc2nc(Nc3cccc(O)c3)c3[nH]ncc3c2c1 [Example #113, 3-(8-Methoxy-3H-pyrazolo[3,4-c]quinolin-4-ylamino)-phenol]
100 to 1000 nM | 100 to 1000 nM | CCOc1ccc(Nc2nc3ccc(OC)cc3c3cn[nH]c23)cc1OCC [Example #114, (3,4-Diethoxy-phenyl)-(8-methoxy-3H-pyrazolo[3,4-c]quinolin-4-yl)-amine]
10 to 100 nM | 100 to 1000 nM | Brc1ccc2nc(Nc3ccc(N4CCOCC4)cc3)c3n[nH]cc3c2c1 [Example #115, (8-Bromo-2H-pyrazolo[3,4-c]quinolin-4-yl)-(4-morpholin-4-yl-phenyl)-amine]
100 to 1000 nM | 100 to 1000 nM | COc1ccc2nc(Nc3ccc4[nH]c(=O)oc(=O)c4c3)c3n[nH]cc3c2c1 [Example #117, 6-(8-Methoxy-2H-pyrazolo[3,4-c]quinolin-4-ylamino)-1H-benzo[d][1,3]oxazine-2,4-dione]
100 to 1000 nM | 100 to 1000 nM | Brc1ccc2nc(Nc3cc[nH]n3)c3n[nH]cc3c2c1 [Example #119, (8-Bromo-2H-pyrazolo[3,4-c]quinolin-4-yl)-(1H-pyrazol-3-yl)-amine]
10 to 100 nM | 100 to 1000 nM | COc1ccc2nc(Nc3ccc(F)c(OC)c3)c3n[nH]cc3c2c1 [Example #124, (4-Fluoro-3-methoxy-phenyl)-(8-methoxy-2H-pyrazolo[3,4-c]quinolin-4-yl)-amine]
10 to 100 nM | 100 to 1000 nM | COc1ccc2nc(Nc3ccc(OC)c(F)c3)c3n[nH]cc3c2c1 [Example #125, (3-Fluoro-4-methoxy-phenyl)-(8-methoxy-2H-pyrazolo[3,4-c]quinolin-4-yl)-amine]
10 to 100 nM | 100 to 1000 nM | COc1cc2nc(Nc3ccc(N(C)C)cc3)c3n[nH]cc3c2cc1OC [Example #135, N-(7,8-Dimethoxy-2H-pyrazolo[3,4-c]quinolin-4-yl)-N′,N′-dimethyl-benzene-1,4-diamine]
100 to 1000 nM | 100 to 1000 nM | COc1ccc2nc(Nc3ccc4c(c3)c(C)c(C)n4C)c3n[nH]cc3c2c1 [Example #138, (8-Methoxy-2H-pyrazolo[3,4-c]quinolin-4-yl)-(1,2,3-trimethyl-1H-indol-5-yl)-amine]
10 to 100 nM | 100 to 1000 nM | COc1cc2nc(Nc3ccc4c(c3)NCCO4)c3n[nH]cc3c2cc1OC [Example #151, (3,4-Dihydro-2H-benzo[1,4]oxazin-6-yl)-(7,8-dimethoxy-2H-pyrazolo[3,4-c]quinolin-4-yl)-amine]
10 to 100 nM | 10 to 100 nM | COc1ccc2nc(Nc3ccc(Cc4ccncc4)cc3)c3n[nH]cc3c2c1 [Example #161, (8-Methoxy-2H-pyrazolo[3,4-c]quinolin-4-yl)-(4-pyridin-4-ylmethyl-phenyl)-amine]
